Data: patent US20260083851A1 (AVILAR THERAPEUTICS, INC., priority 2022, published 2026)
Read-outs that look alike come from different tables or passages of the source. Starred links: 1 amine or outer side, 2 acyl side, 3 side chain; linkers in the order of their positions; H or OH if unused. Positions of bridges follow the written chain, without caps; N, C: chain ends. Non-standard residues stand in square brackets, D forms with d. Residues, ends and D or L forms follow the SMILES beside them. ξ: configuration not given here. *: point of attachment. X1 = O=C(CCOCC(COCCC(=O)NCCOCCOCCOCCOCC1OCC(Nc2cncc(C(F)(F)F)n2)C(O)C1O)NCC(=O)*)NCCOCCOCCOCCOCC1OCC(Nc2cncc(C(F)(F)F)n2)C(O)C1O; ξPro(4ξ-NH2) = O=C(C1CC(N[*:3])CN1[*:1])[*:2]

Columns and labels:
IgG = IgG SPR binding; details: second table, read-out: IgG KD
[1] = target: T1, ASGPR receptor on HepG2 cells (ternary complex with AF488-labeled antibody) (Homo sapiens, UniProt P07306); assay: Ternary complex formation assay (flow cytometry, cell-associated AF488 fluorescence); assay type: cell-based
T1 construct: host or cells: HepG2
T1 sequence (P07306 1-291): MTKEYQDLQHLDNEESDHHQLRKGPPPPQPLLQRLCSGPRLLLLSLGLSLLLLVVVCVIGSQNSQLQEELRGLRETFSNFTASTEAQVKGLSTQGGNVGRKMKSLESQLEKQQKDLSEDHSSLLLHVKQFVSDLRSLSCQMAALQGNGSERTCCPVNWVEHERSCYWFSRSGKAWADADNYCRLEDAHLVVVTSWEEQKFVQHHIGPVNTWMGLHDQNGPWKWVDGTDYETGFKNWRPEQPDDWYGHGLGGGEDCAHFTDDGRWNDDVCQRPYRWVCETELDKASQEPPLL
T1 sequence (P07307 1-311 partner): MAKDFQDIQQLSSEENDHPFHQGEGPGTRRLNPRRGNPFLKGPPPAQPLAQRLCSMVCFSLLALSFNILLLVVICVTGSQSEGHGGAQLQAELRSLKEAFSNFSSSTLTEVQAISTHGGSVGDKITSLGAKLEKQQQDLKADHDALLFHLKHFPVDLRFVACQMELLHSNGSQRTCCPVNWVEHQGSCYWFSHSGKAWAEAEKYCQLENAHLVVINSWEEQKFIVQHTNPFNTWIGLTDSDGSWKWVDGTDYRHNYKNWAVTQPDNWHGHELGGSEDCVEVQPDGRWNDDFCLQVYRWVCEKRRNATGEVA
Procedure: Human IgG (Sigma-Aldrich, 14506) was covalently labeled with Alexa Fluor 488 using the Alexa Fluor™ 488 Protein Labeling Kit (Thermo Fisher, A10235) following the manufacturer's instructions. HepG2 cells (ATCC, HB-8065) were cultured to about 70% confluence and harvested by trypsinization. Single cell suspensions of HepG2 cells were plated in 96 well plates at 1×10^5 cells/well in cell culture media (DMEM supplemented with 10% FBS) and placed at 4° C. For studies using human IgG, cells were incubated with 100 nM AF488-labeled anti-human IgG and serial dilutions of IgG-based degrader for 1 hour at 4° C. For studies using DNP, cells were incubated with 100 nM AF488-labeled polyclonal rabbit anti-dinitrophenyl (DNP) antibodies (ThermoFisher) and serial dilutions of DNP-based degrader for 1 hour at 4° C. After washing once with ice-cold PBS containing 0.1% BSA and 0.1% sodium azide, cells were resuspended in 150 uL PBS+0.1% BSA and cell-associated AF488 fluorescence was measured by flow cytometry using the iQue® Screener PLUS Flow Cytometer (IntelliCyt). […]

ASGPR = target: T2, ASGPR (Homo sapiens, UniProt P07306); assay: ASGPR SPR binding
T2 construct: biotin (biotinylated)
T2 sequence (P07306 1-291): T1 sequence (P07306 1-291)

[2] = read-out: TCF EC50, 100 nM AF488-labeled antibody, 1 hour at 4° C., the 25th table, class symbols
[3] = second table, read-out: ASGPR KD
[4] = read-out: ASGPR KD, second table

Structure (SMILES)	Kd (IgG) [µM]	EC50 [1, 2] [nM]	Kd (ASGPR; [3]) [µM]	Kd (ASGPR; [4]) [µM]	EC50 ([1]; read-out: TCF EC50, 100 nM AF488-labeled antibody, 1 hour at 4° C., the 25th table, numeric bounds, nM from footnote) [nM]
CC(C)CC1NC(=O)C(Cc2cnc[nH]2)NC(=O)C(Cc2c[nH]c3ccccc23)NC(=O)C(C)NC(=O)C2CSSCC(NC(=O)C(Cc3c[nH]c4ccccc34)NC(=O)C(C(C)C)NC(=O)C(CC(C)C)NC(=O)C(CCC(=O)O)NC(=O)CNC1=O)C(=O)NC(C(C)O)C(=O)N1CCCC1C(=O)N1CC(NC(=O)CCCc3cn(CC4OCC(Nc5cncc(C(F)(F)F)n5)C(O)C4O)nn3)CC1C(=O)NC(CC(=O)O)C(=O)N2 (stereo not drawn) [compound 78]	< 0.1	< 100	< 0.1		
CC(C)CC1NC(=O)C(Cc2cnc[nH]2)NC(=O)C(Cc2c[nH]c3ccccc23)NC(=O)C(C)NC(=O)C2CSSCC(NC(=O)C(Cc3c[nH]c4ccccc34)NC(=O)C(C(C)C)NC(=O)C(CC(C)C)NC(=O)C(CCC(=O)O)NC(=O)CNC1=O)C(=O)NC(C(C)O)C(=O)N1CCCC1C(=O)N1CC(NC(=O)c3ccc(N4CCC(CN5CCN(CC6OCC(Nc7cncc(C(F)(F)F)n7)C(O)C6O)CC5)CC4)nn3)CC1C(=O)NC(CC(=O)O)C(=O)N2 (stereo not drawn) [compound 42]	< 0.1	< 100	< 0.1		
CC(C)CC1NC(=O)C(Cc2cnc[nH]2)NC(=O)C(Cc2c[nH]c3ccccc23)NC(=O)C(C)NC(=O)C2CSSCC(NC(=O)C(Cc3c[nH]c4ccccc34)NC(=O)C(C(C)C)NC(=O)C(CC(C)C)NC(=O)C(CCC(=O)O)NC(=O)CNC1=O)C(=O)NC(C(C)O)C(=O)N1CCCC1C(=O)N1CC(NC(=O)CCN3CCN(CC(=O)NCC4OCC(Nc5cncc(C(F)(F)F)n5)C(O)C4O)CC3)CC1C(=O)NC(CC(=O)O)C(=O)N2 (stereo not drawn) [compound 39]	< 0.1	< 100	< 0.1		
CC(C)CC1NC(=O)C(Cc2cnc[nH]2)NC(=O)C(Cc2c[nH]c3ccccc23)NC(=O)C(C)NC(=O)C2CSSCC(NC(=O)C(Cc3c[nH]c4ccccc34)NC(=O)C(C(C)C)NC(=O)C(CC(C)C)NC(=O)C(CCC(=O)O)NC(=O)CNC1=O)C(=O)NC(C(C)O)C(=O)N1CCCC1C(=O)N1CC(NC(=O)C3CCC(C(=O)NCC4OCC(Nc5cncc(C(F)(F)F)n5)C(O)C4O)CC3)CC1C(=O)NC(CC(=O)O)C(=O)N2 (stereo not drawn) [compound 45]	< 0.1	> 1000	0.1 to 0.5		
CC(C)CC1NC(=O)C(Cc2cnc[nH]2)NC(=O)C(Cc2c[nH]c3ccccc23)NC(=O)C(C)NC(=O)C2CSSCC(NC(=O)C(Cc3c[nH]c4ccccc34)NC(=O)C(C(C)C)NC(=O)C(CC(C)C)NC(=O)C(CCC(=O)O)NC(=O)CNC1=O)C(=O)NC(C(C)O)C(=O)N1CCCC1C(=O)N1CC(NC(=O)COCCOCC(=O)NCC3OCC(Nc4cncc(C(F)(F)F)n4)C(O)C3O)CC1C(=O)NC(CC(=O)O)C(=O)N2 (stereo not drawn) [compound 50]	< 0.1	< 100	< 0.1		
CC(C)CC1NC(=O)C(Cc2cnc[nH]2)NC(=O)C(Cc2c[nH]c3ccccc23)NC(=O)C(C)NC(=O)C2CSSCC(NC(=O)C(Cc3c[nH]c4ccccc34)NC(=O)C(C(C)C)NC(=O)C(CC(C)C)NC(=O)C(CCC(=O)N(C)C)NC(=O)CNC1=O)C(=O)NC(C(C)O)C(=O)N1CCCC1C(=O)N1CC(NC(=O)CNC(COCCC(=O)NCCOCCOCCOCCOCC3OCC(Nc4cncc(C(F)(F)F)n4)C(O)C3O)COCCC(=O)NCCOCCOCCOCCOCC3OCC(Nc4cncc(C(F)(F)F)n4)C(O)C3O)CC1C(=O)NC(CC(N)=O)C(=O)N2 (stereo not drawn) [compound 73] (cyclo(GE(NMe2)LVWCTP[ξPro(4ξ-NH2)](X1)NCAWHL); disulfide 6-11; configuration not given here)	< 0.1	< 100		< 0.1	
CC(C)CC1NC(=O)C(C)NC(=O)CNC(=O)C(CC(C)C)NC(=O)C(Cc2cnc[nH]2)NC(=O)C(Cc2c[nH]c3ccccc23)NC(=O)C(C)NC(=O)C2CSSCC(NC(=O)C(Cc3c[nH]c4ccccc34)NC(=O)C(C(C)C)NC1=O)C(=O)NC(C(C)O)C(=O)N1CCCC1C(=O)N1CC(NC(=O)CNC(COCCC(=O)NCCOCCOCCOCCOCC3OCC(Nc4cncc(C(F)(F)F)n4)C(O)C3O)COCCC(=O)NCCOCCOCCOCCOCC3OCC(Nc4cncc(C(F)(F)F)n4)C(O)C3O)CC1C(=O)NC(CC(N)=O)C(=O)N2 (stereo not drawn) [compound 74] (cyclo(GALVWCTP[ξPro(4ξ-NH2)](X1)NCAWHL); disulfide 6-11; configuration not given here)	< 0.1	< 100		< 0.1	
CC(C)CC1NC(=O)C(Cc2cnc[nH]2)NC(=O)C(Cc2c[nH]c3ccccc23)NC(=O)C(C)NC(=O)C2CSSCC(NC(=O)C(Cc3c[nH]c4ccccc34)NC(=O)C(C(C)C)NC(=O)C(CC(C)C)NC(=O)C(CCC(=O)O)NC(=O)CNC1=O)C(=O)NC(C(C)O)C(=O)N1CCCC1C(=O)N1CC(NC(=O)CC(=O)NCC3OCC(Nc4cncc(C(F)(F)F)n4)C(O)C3O)CC1C(=O)NC(CC(=O)O)C(=O)N2 (stereo not drawn) [compound 38]	< 0.1	< 100	< 0.1		
CC(C)CC1NC(=O)C(Cc2cnc[nH]2)NC(=O)C(Cc2c[nH]c3ccccc23)NC(=O)C(C)NC(=O)C2CSSCC(NC(=O)C(Cc3c[nH]c4ccccc34)NC(=O)C(C(C)C)NC(=O)C(CC(C)C)NC(=O)C(CCC(=O)O)NC(=O)CNC1=O)C(=O)NC(C(C)O)C(=O)N1CCCC1C(=O)N1CC(NC(=O)CNC(COCCC(=O)NCC3OCC(Nc4cncc(C(F)(F)F)n4)C(O)C3O)COCCC(=O)NCC3OCC(Nc4cncc(C(F)(F)F)n4)C(O)C3O)CC1C(=O)NC(CC(=O)O)C(=O)N2 (stereo not drawn) [compound 41]	< 0.1	< 100		< 0.1	
CC(C)CC1NC(=O)C(Cc2cnc[nH]2)NC(=O)C(Cc2c[nH]c3ccccc23)NC(=O)C(C)NC(=O)C2CSSCC(NC(=O)C(Cc3c[nH]c4ccccc34)NC(=O)C(C(C)C)NC(=O)C(CC(C)C)NC(=O)C(CCC(=O)O)NC(=O)CNC1=O)C(=O)NC(C(C)O)C(=O)N1CCCC1C(=O)N1CC(NC(=O)COc3ccc(CC(=O)NCC4OCC(Nc5cncc(C(F)(F)F)n5)C(O)C4O)cc3)CC1C(=O)NC(CC(=O)O)C(=O)N2 (stereo not drawn) [compound 37]	< 0.1	< 100	< 0.1		
CC(C)CC1NC(=O)C(Cc2cnc[nH]2)NC(=O)C(Cc2c[nH]c3ccccc23)NC(=O)C(C)NC(=O)C2CSSCC(NC(=O)C(Cc3c[nH]c4ccccc34)NC(=O)C(C(C)C)NC(=O)C(CC(C)C)NC(=O)C(CCC(=O)O)NC(=O)CNC1=O)C(=O)NC(C(C)O)C(=O)N1CCCC1C(=O)N1CC(NC(=O)CNC(COCCC(=O)NCCOCCOCCOCCOCC3OCC(Nc4cncc(C(F)(F)F)n4)C(O)C3O)COCCC(=O)NCCOCCOCCOCCOCC3OCC(Nc4cncc(C(F)(F)F)n4)C(O)C3O)CC1C(=O)NC(CC(=O)O)C(=O)N2 (stereo not drawn) [compound 46]	< 0.1	< 100		< 0.1	
CC(C)CC1NC(=O)C(Cc2cnc[nH]2)NC(=O)C(Cc2c[nH]c3ccccc23)NC(=O)C(C)NC(=O)C2CSSCC(NC(=O)C(Cc3c[nH]c4ccccc34)NC(=O)C(C(C)C)NC(=O)C(CC(C)C)NC(=O)C(CCC(=O)O)NC(=O)CNC1=O)C(=O)NC(C(C)O)C(=O)N1CCCC1C(=O)N1CC(NC(=O)c3ccc(-c4ccc(C(=O)NCC5OCC(Nc6cncc(C(F)(F)F)n6)C(O)C5O)cc4)cc3)CC1C(=O)NC(CC(=O)O)C(=O)N2 (stereo not drawn) [compound 49]	< 0.1		< 0.1		> 686
CC(C)CC1NC(=O)C(Cc2cnc[nH]2)NC(=O)C(Cc2c[nH]c3ccccc23)NC(=O)C(C)NC(=O)C2CSSCC(NC(=O)C(Cc3c[nH]c4ccccc34)NC(=O)C(C(C)C)NC(=O)C(CC(C)C)NC(=O)C(CCC(=O)O)NC(=O)CNC1=O)C(=O)NC(C(C)O)C(=O)N1CCCC1C(=O)N1CC(NC(=O)c3ccc(C(=O)NCC4OCC(Nc5cncc(C(F)(F)F)n5)C(O)C4O)cc3)CC1C(=O)NC(CC(=O)O)C(=O)N2 (stereo not drawn) [compound 43]	< 0.1	> 1000	< 0.1		
CC(C)CC1NC(=O)C(Cc2cnc[nH]2)NC(=O)C(Cc2c[nH]c3ccccc23)NC(=O)C(C)NC(=O)C2CSSCC(NC(=O)C(Cc3c[nH]c4ccccc34)NC(=O)C(C(C)C)NC(=O)C(CC(C)C)NC(=O)C(CCC(=O)O)NC(=O)CNC1=O)C(=O)NC(C(C)O)C(=O)N1CCCC1C(=O)N1CC(NC(=O)c3ccc(N4CCC(CN5CCN(CC6OCC(Nc7cncc(C(F)(F)F)n7)C(O)C6O)CC5)CC4)cc3)CC1C(=O)NC(CC(=O)O)C(=O)N2 (stereo not drawn) [compound 44]	< 0.1	< 100	< 0.1		
